molecular target: D(3) dopamine receptor (Rattus norvegicus, UniProt P19020); assay: Displacement of [3H]-R(+)-7-OHDPAT from dopamine D3 receptor in rat brain homogenates; format: tissue-based
Sequence (P19020 whole entry): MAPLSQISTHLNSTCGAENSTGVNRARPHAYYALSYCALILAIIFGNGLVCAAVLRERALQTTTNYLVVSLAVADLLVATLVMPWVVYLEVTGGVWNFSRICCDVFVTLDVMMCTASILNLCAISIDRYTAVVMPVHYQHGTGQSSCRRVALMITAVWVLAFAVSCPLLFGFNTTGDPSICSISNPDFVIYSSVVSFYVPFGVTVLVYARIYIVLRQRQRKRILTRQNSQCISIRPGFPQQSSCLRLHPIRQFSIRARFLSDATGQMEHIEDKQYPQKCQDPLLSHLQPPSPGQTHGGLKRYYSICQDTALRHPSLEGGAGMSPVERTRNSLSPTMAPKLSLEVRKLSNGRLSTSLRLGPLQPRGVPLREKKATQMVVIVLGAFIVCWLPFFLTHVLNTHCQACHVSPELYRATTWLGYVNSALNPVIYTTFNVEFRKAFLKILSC

Structure (SMILES)	Ki [µM]
CCCN(CC[C@H]1CC[C@H](NC(=O)c2ccc(-n3cncn3)cc2)CC1)[C@H]1CCc2nc(N)sc2C1	0.0024
CCCN(CC[C@H]1CC[C@H](NC(=O)/C=C/c2ccccc2Cl)CC1)[C@H]1CCc2nc(N)sc2C1	0.0012
CCCN(CC[C@H]1CC[C@H](NS(=O)(=O)c2cccc(F)c2)CC1)[C@H]1CCc2nc(N)sc2C1	0.00072
CCCN(CC[C@H]1CC[C@H](NC(=O)c2ccc(-c3noc(C4CC4)n3)cc2)CC1)[C@H]1CCc2nc(N)sc2C1	0.0035
CCCN(CC[C@H]1CC[C@H](NC(=O)/C=C/c2ccc(OC)cc2)CC1)[C@H]1CCc2nc(N)sc2C1	0.0067
CCCN(CC[C@H]1CC[C@H](NC(=O)c2ccc(-c3noc(C(C)C)n3)cc2)CC1)[C@H]1CCc2nc(N)sc2C1	0.002
CCCN(CC[C@H]1CC[C@H](NS(=O)(=O)c2cccc(Cl)c2)CC1)[C@H]1CCc2nc(N)sc2C1	0.0011
CCCN(CC[C@H]1CC[C@H](NC(=O)c2cccc3cnccc23)CC1)[C@H]1CCc2nc(N)sc2C1	0.0059
CCCN(CC[C@H]1CC[C@H](NS(=O)(=O)c2ccc(OC)cc2)CC1)[C@H]1CCc2nc(N)sc2C1	0.00078
CCCN(CC[C@H]1CC[C@H](NC(=O)/C=C/c2cccc(OC)c2)CC1)[C@H]1CCc2nc(N)sc2C1	0.0093
CCCN(CC[C@H]1CC[C@H](NC(=O)c2ccc3ccccc3n2)CC1)[C@H]1CCc2nc(N)sc2C1	0.0016
CCCN(CC[C@H]1CC[C@H](NS(=O)(=O)c2cnccc2Cl)CC1)[C@H]1CCc2nc(N)sc2C1	0.00093
CCCN(CC[C@H]1CC[C@H](NC(=O)/C=C/c2ccccc2OC)CC1)[C@H]1CCc2nc(N)sc2C1	0.0081
CCCN(CC[C@H]1CC[C@H](NC(=O)/C=C/c2ccc(Cl)cc2)CC1)[C@H]1CCc2nc(N)sc2C1	0.0025
CCCN(CC[C@H]1CC[C@H](NS(=O)(=O)c2ccc(C(C)(C)C)cc2)CC1)[C@H]1CCc2nc(N)sc2C1	0.005
CCCN(CC[C@H]1CC[C@H](NC(=O)c2ccccc2-n2cccn2)CC1)[C@H]1CCc2nc(N)sc2C1	0.002
CCCN(CC[C@H]1CC[C@H](NS(=O)(=O)c2ccccc2Cl)CC1)[C@H]1CCc2nc(N)sc2C1	0.00068
CCCN(CC[C@H]1CC[C@H](NS(=O)(=O)c2ccc(C(C)C)cc2)CC1)[C@H]1CCc2nc(N)sc2C1	0.0045
CCCN(CC[C@H]1CC[C@H](NS(=O)(=O)c2ccc(Cl)nc2)CC1)[C@H]1CCc2nc(N)sc2C1	0.00063
CCCN(CC[C@H]1CC[C@H](NC(=O)/C=C/c2ccc(F)cc2)CC1)[C@H]1CCc2nc(N)sc2C1	0.001

molecular target: not listed separately; assay: Displacement of [3H]Spiperone from dopamine D2 like receptor in rat brain homogenates; format: tissue-based

Structure (SMILES)	Ki [µM]
CCCN(CC[C@H]1CC[C@H](NC(=O)c2ccc(-n3cncn3)cc2)CC1)[C@H]1CCc2nc(N)sc2C1	0.056
CCCN(CC[C@H]1CC[C@H](NC(=O)/C=C/c2ccccc2Cl)CC1)[C@H]1CCc2nc(N)sc2C1	0.03
CCCN(CC[C@H]1CC[C@H](NC(=O)c2ccc(-c3noc(C4CC4)n3)cc2)CC1)[C@H]1CCc2nc(N)sc2C1	0.633
CCCN(CC[C@H]1CC[C@H](NC(=O)/C=C/c2ccc(OC)cc2)CC1)[C@H]1CCc2nc(N)sc2C1	0.094
CCCN(CC[C@H]1CC[C@H](NC(=O)c2ccc(-c3noc(C(C)C)n3)cc2)CC1)[C@H]1CCc2nc(N)sc2C1	0.47
CCCN(CC[C@H]1CC[C@H](NC(=O)c2cccc3cnccc23)CC1)[C@H]1CCc2nc(N)sc2C1	0.064
CCCN(CC[C@H]1CC[C@H](NS(=O)(=O)c2ccc(OC)cc2)CC1)[C@H]1CCc2nc(N)sc2C1	0.038
CCCN(CC[C@H]1CC[C@H](NC(=O)/C=C/c2cccc(OC)c2)CC1)[C@H]1CCc2nc(N)sc2C1	0.122
CCCN(CC[C@H]1CC[C@H](NC(=O)c2ccc3ccccc3n2)CC1)[C@H]1CCc2nc(N)sc2C1	0.088
CCCN(CC[C@H]1CC[C@H](NC(=O)/C=C/c2ccccc2OC)CC1)[C@H]1CCc2nc(N)sc2C1	0.102
CCCN(CC[C@H]1CC[C@H](NC(=O)/C=C/c2ccc(Cl)cc2)CC1)[C@H]1CCc2nc(N)sc2C1	0.027
CCCN(CC[C@H]1CC[C@H](NS(=O)(=O)c2ccc(C(C)(C)C)cc2)CC1)[C@H]1CCc2nc(N)sc2C1	0.101
CCCN(CC[C@H]1CC[C@H](NC(=O)c2ccccc2-n2cccn2)CC1)[C@H]1CCc2nc(N)sc2C1	0.045
CCCN(CC[C@H]1CC[C@H](NS(=O)(=O)c2ccc(C(C)C)cc2)CC1)[C@H]1CCc2nc(N)sc2C1	0.133
CCCN(CC[C@H]1CC[C@H](NS(=O)(=O)c2ccc(Cl)nc2)CC1)[C@H]1CCc2nc(N)sc2C1	0.028
CCCN(CC[C@H]1CC[C@H](NC(=O)/C=C/c2ccc(F)cc2)CC1)[C@H]1CCc2nc(N)sc2C1	0.066

molecular target: not listed separately; assay: Displacement of [3H]SCH23390 from dopamine D1 like receptor in rat brain homogenates; format: tissue-based

Structure (SMILES)	Ki [µM]
CCCN(CC[C@H]1CC[C@H](NC(=O)c2ccc(-n3cncn3)cc2)CC1)[C@H]1CCc2nc(N)sc2C1	14
CCCN[C@H]1CCc2nc(N)sc2C1 [PRAMIPEXOLE]	> 100
CCCN(CC[C@H]1CC[C@H](NC(=O)/C=C/c2ccccc2Cl)CC1)[C@H]1CCc2nc(N)sc2C1	5.44
CCCN(CC[C@H]1CC[C@H](NS(=O)(=O)c2cccc(F)c2)CC1)[C@H]1CCc2nc(N)sc2C1	10.4
CCCN(CC[C@H]1CC[C@H](NC(=O)c2ccc(-c3noc(C4CC4)n3)cc2)CC1)[C@H]1CCc2nc(N)sc2C1	11.4
CCCN(CC[C@H]1CC[C@H](NC(=O)/C=C/c2ccc(OC)cc2)CC1)[C@H]1CCc2nc(N)sc2C1	8.03
CCCN(CC[C@H]1CC[C@H](NC(=O)c2ccc(-c3noc(C(C)C)n3)cc2)CC1)[C@H]1CCc2nc(N)sc2C1	10.9
CCCN(CC[C@H]1CC[C@H](NS(=O)(=O)c2cccc(Cl)c2)CC1)[C@H]1CCc2nc(N)sc2C1	5.55
CCCN(CC[C@H]1CC[C@H](NC(=O)c2cccc3cnccc23)CC1)[C@H]1CCc2nc(N)sc2C1	26.4
CCCN(CC[C@H]1CC[C@H](NS(=O)(=O)c2ccc(OC)cc2)CC1)[C@H]1CCc2nc(N)sc2C1	21.3
CCCN(CC[C@H]1CC[C@H](NC(=O)/C=C/c2cccc(OC)c2)CC1)[C@H]1CCc2nc(N)sc2C1	8.89
CCCN(CC[C@H]1CC[C@H](NC(=O)c2ccc3ccccc3n2)CC1)[C@H]1CCc2nc(N)sc2C1	11.3
CCCN(CC[C@H]1CC[C@H](NS(=O)(=O)c2cnccc2Cl)CC1)[C@H]1CCc2nc(N)sc2C1	10.7
CCCN(CC[C@H]1CC[C@H](NC(=O)/C=C/c2ccccc2OC)CC1)[C@H]1CCc2nc(N)sc2C1	7.92
CCCN(CC[C@H]1CC[C@H](NC(=O)/C=C/c2ccc(Cl)cc2)CC1)[C@H]1CCc2nc(N)sc2C1	4.03
CCCN(CC[C@H]1CC[C@H](NS(=O)(=O)c2ccc(C(C)(C)C)cc2)CC1)[C@H]1CCc2nc(N)sc2C1	3.15
CCCN(CC[C@H]1CC[C@H](NC(=O)c2ccccc2-n2cccn2)CC1)[C@H]1CCc2nc(N)sc2C1	46.9
CCCN(CC[C@H]1CC[C@H](NS(=O)(=O)c2ccccc2Cl)CC1)[C@H]1CCc2nc(N)sc2C1	9.48
CCCN(CC[C@H]1CC[C@H](NS(=O)(=O)c2ccc(C(C)C)cc2)CC1)[C@H]1CCc2nc(N)sc2C1	8.15
CCCN(CC[C@H]1CC[C@H](NS(=O)(=O)c2ccc(Cl)nc2)CC1)[C@H]1CCc2nc(N)sc2C1	8.19
CCCN(CC[C@H]1CC[C@H](NC(=O)/C=C/c2ccc(F)cc2)CC1)[C@H]1CCc2nc(N)sc2C1	4.67

organism: Rattus norvegicus; assay: Selectivity ratio of Ki for dopamine D1 like receptor in rat brain homogenates to Ki for dopamine D3 receptor in rat brain homogenates; format: tissue-based

Structure (SMILES)	Ratio Ki
CCCN(CC[C@H]1CC[C@H](NC(=O)c2ccc(-n3cncn3)cc2)CC1)[C@H]1CCc2nc(N)sc2C1	5960
CCCN(CC[C@H]1CC[C@H](NC(=O)/C=C/c2ccccc2Cl)CC1)[C@H]1CCc2nc(N)sc2C1	4650
CCCN(CC[C@H]1CC[C@H](NC(=O)c2ccc(-c3noc(C4CC4)n3)cc2)CC1)[C@H]1CCc2nc(N)sc2C1	3240
CCCN(CC[C@H]1CC[C@H](NC(=O)/C=C/c2ccc(OC)cc2)CC1)[C@H]1CCc2nc(N)sc2C1	1200
CCCN(CC[C@H]1CC[C@H](NC(=O)c2ccc(-c3noc(C(C)C)n3)cc2)CC1)[C@H]1CCc2nc(N)sc2C1	5370
CCCN(CC[C@H]1CC[C@H](NC(=O)c2cccc3cnccc23)CC1)[C@H]1CCc2nc(N)sc2C1	4500
CCCN(CC[C@H]1CC[C@H](NS(=O)(=O)c2ccc(OC)cc2)CC1)[C@H]1CCc2nc(N)sc2C1	27500
CCCN(CC[C@H]1CC[C@H](NC(=O)/C=C/c2cccc(OC)c2)CC1)[C@H]1CCc2nc(N)sc2C1	953
CCCN(CC[C@H]1CC[C@H](NC(=O)c2ccc3ccccc3n2)CC1)[C@H]1CCc2nc(N)sc2C1	6050
CCCN(CC[C@H]1CC[C@H](NC(=O)/C=C/c2ccccc2OC)CC1)[C@H]1CCc2nc(N)sc2C1	983
CCCN(CC[C@H]1CC[C@H](NC(=O)/C=C/c2ccc(Cl)cc2)CC1)[C@H]1CCc2nc(N)sc2C1	1600
CCCN(CC[C@H]1CC[C@H](NS(=O)(=O)c2ccc(C(C)(C)C)cc2)CC1)[C@H]1CCc2nc(N)sc2C1	626
CCCN(CC[C@H]1CC[C@H](NC(=O)c2ccccc2-n2cccn2)CC1)[C@H]1CCc2nc(N)sc2C1	23800
CCCN(CC[C@H]1CC[C@H](NS(=O)(=O)c2ccc(C(C)C)cc2)CC1)[C@H]1CCc2nc(N)sc2C1	1810
CCCN(CC[C@H]1CC[C@H](NS(=O)(=O)c2ccc(Cl)nc2)CC1)[C@H]1CCc2nc(N)sc2C1	12900
CCCN(CC[C@H]1CC[C@H](NC(=O)/C=C/c2ccc(F)cc2)CC1)[C@H]1CCc2nc(N)sc2C1	4670
